Columns and labels:
[1] = Compound was evaluated for the ability to displace [3H]spiperone at Dopamine receptor D2 in porcine anterior pituitary gland as low affinity state
[2] = Compound was evaluated for the ability to displace [3H]spiperone at Dopamine receptor D2 in porcine anterior pituitary gland as high affinity state
[3] = Compound was evaluated for the ability to displace [3H]spiperone at Dopamine receptor D2 in porcine anterior pituitary gland as low affinity state; remark: listed apart in the source
[4] = Compound was evaluated for the ability to displace [3H]spiperone at dopamine receptor in porcine anterior pituitary gland as high affinity state

With `CN1CCc2cc(Br)cc3c2[C@H]1Cc1ccc(O)c(O)c1-3` the Kd [1] was 728 nM and the Kd [2] was 6.8 nM.

In the case of `CN1CCc2cc(N)cc3c2[C@H]1Cc1ccc(O)c(O)c1-3`, the Kd [1] is reported as 3300 nM and the Kd [3] is reported as 20 nM.

In the case of `CN1CCc2cc(F)cc3c2[C@H]1Cc1ccc(O)c(O)c1-3` [(R)-2-Fluoro-6-methyl-5,6,6a,7-tetrahydro-4H-dibenzo[de,g]quinoline-10,11-diol], the Kd [4] is reported as 0.43 nM and the Kd [2] is reported as 94 nM.

Reference: BindingDB's records for doi:10.1021/jm00126a009 (Northeastern University, 1989)
